Assay results as given in ChEMBL document CHEMBL1201862, “PubChem BioAssay data set” (2004).
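Following 48 hours of exposure in 96-well plates, responses at five concentrations were used to interpolate endpoints linearly. Abbreviation: GI50, concentration required for 50% inhibition of growth.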 Activity calls are given as the source filed them. No stated cut-off is given here; in the data, active = GI50 up to about 1.1 µM and inactive = higher.

What was measured:
Assay in all cases: NCI anticancer screen, dose series, 48 h
786-0 = tested on: 786-0
COLO 205 = tested on: COLO 205
DU-145 = tested on: DU-145
HCT-15 = tested on: HCT-15
Hs-578T = tested on: Hs-578T
LOX IMVI = tested on: LOX IMVI
M14 = tested on: M14
MDA-MB-231 = tested on: MDA-MB-231
MDA-N = tested on: MDA-N
MOLT-4 = tested on: MOLT-4
NCI-H226 = tested on: NCI-H226
NCI-H460 = tested on: NCI-H460
SF-268 = tested on: SF-268
SK-MEL-2 = tested on: SK-MEL-2
SW-620 = tested on: SW-620
UACC-257 = tested on: UACC-257
UO-31 = tested on: UO-31
SN12C = tested on: SN12C

Measured: GI50

CC1CN=C(Nc2ccc(F)c(Cl)c2)S1 (stereo not drawn)
inactive: 786-0 > 100 µM | COLO 205 > 100 µM | DU-145 > 100 µM | Hs-578T > 100 µM | LOX IMVI 86.7 µM | M14 > 100 µM | MDA-MB-231 > 100 µM | MDA-N > 100 µM | MOLT-4 > 10 µM | NCI-H226 > 100 µM | NCI-H460 > 100 µM | SF-268 92.3 µM | SK-MEL-2 > 100 µM | SW-620 > 100 µM | UACC-257 86.5 µM | UO-31 29.8 µM
83.4 µM: HCT-15

O=C(Nc1ccccc1)N(C1=NCC(CI)S1)c1ccc(F)cc1F (stereo not drawn)
inactive: 786-0 46 µM | COLO 205 46 µM | DU-145 > 100 µM | Hs-578T > 100 µM | LOX IMVI 16 µM | M14 79.1 µM | MDA-MB-231 20.2 µM | MDA-N 35.9 µM | MOLT-4 21.6 µM | NCI-H226 87.3 µM | SF-268 > 100 µM | SK-MEL-2 > 100 µM | SN12C 46.7 µM | SW-620 62.1 µM | UACC-257 23.2 µM | UO-31 > 100 µM
25 µM: HCT-15

Cc1nn(-c2ccccc2)c(C)c1/C=N/NC(=O)c1sc(=S)n(-c2ccccc2)c1N
inactive: 786-0 3.78 µM | COLO 205 1.42 µM | DU-145 9.66 µM | Hs-578T 1.85 µM | LOX IMVI 2.09 µM | M14 4.92 µM | MDA-MB-231 2.18 µM | MDA-N 4.19 µM | MOLT-4 5.58 µM | NCI-H226 6.52 µM | NCI-H460 3.08 µM | SF-268 5.22 µM | SK-MEL-2 29 µM | SN12C 6.28 µM | SW-620 45.5 µM | UACC-257 4.9 µM | UO-31 3.74 µM
4.89 µM: HCT-15

O=C1c2ccccc2-c2nc(-c3ccccc3)cc3c2c1nc1ccccc13
inactive: 786-0 25.2 µM | COLO 205 25.6 µM | DU-145 13.9 µM | Hs-578T 22.6 µM | LOX IMVI 1.77 µM | M14 5.55 µM | MDA-MB-231 17.6 µM | MDA-N 1.89 µM | MOLT-4 6.52 µM | NCI-H226 16.6 µM | SF-268 19.7 µM | SK-MEL-2 20 µM | SN12C 12.9 µM | SW-620 13.2 µM | UACC-257 14.2 µM | UO-31 11.4 µM
11.2 µM: HCT-15

COC(=O)[C@]12CC3C=CC1N(C3)C(CBr)c1c2n(S(=O)(=O)c2ccccc2)c2ccccc12 (stereo partly drawn)
72.8 µM: HCT-15
inactive: 786-0 43 µM | COLO 205 > 100 µM | DU-145 > 100 µM | Hs-578T 39.9 µM | LOX IMVI 43.4 µM | M14 > 100 µM | MDA-MB-231 57.1 µM | MDA-N 60.1 µM | NCI-H226 41.7 µM | NCI-H460 98.6 µM | SK-MEL-2 79.4 µM | SN12C > 100 µM | SW-620 > 100 µM | UACC-257 > 100 µM | UO-31 > 100 µM

CCOC(=O)c1c(-c2ccc(Br)cc2)ccn1C
> 10 µM: HCT-15
inactive: 786-0 > 10 µM | COLO 205 > 10 µM | DU-145 > 10 µM | Hs-578T > 10 µM | LOX IMVI > 10 µM | M14 > 10 µM | MDA-MB-231 > 10 µM | MDA-N > 10 µM | MOLT-4 > 10 µM | NCI-H226 > 10 µM | NCI-H460 > 10 µM | SF-268 > 10 µM | SK-MEL-2 > 10 µM | SN12C > 10 µM | SW-620 > 10 µM | UACC-257 > 10 µM

Cc1cc(S(=O)(=O)NC2=Nc3ccc(Cl)cc3C(c3ccccc3)N2)c(S)cc1Cl (stereo not drawn)
inactive: 786-0 > 100 µM | COLO 205 > 100 µM | DU-145 > 100 µM | Hs-578T > 100 µM | LOX IMVI 47.5 µM | M14 > 100 µM | MDA-MB-231 > 100 µM | MDA-N > 100 µM | MOLT-4 62.5 µM | NCI-H226 15.4 µM | NCI-H460 8.79 µM | SF-268 9.12 µM | SN12C > 100 µM | SW-620 > 100 µM | UACC-257 > 100 µM | UO-31 46 µM
67.1 µM: HCT-15

NCCCC[C@H](N)C(=O)Nc1ccc(-c2nc3ccccc3s2)cc1Cl
inactive: 786-0 3.05 µM | COLO 205 4.91 µM | DU-145 6.78 µM | Hs-578T 16.3 µM | LOX IMVI 1.36 µM | M14 3.55 µM | MDA-MB-231 11.6 µM | MDA-N 4.46 µM | MOLT-4 3 µM | SF-268 8.34 µM | SK-MEL-2 16.8 µM | SN12C 14.6 µM | SW-620 11.5 µM | UACC-257 14.1 µM | UO-31 6.35 µM
active: NCI-H460 0.271 µM
5.68 µM: HCT-15

O=C(c1ccco1)C1CC(c2ccc3ccccc3c2O)=NN1 (stereo not drawn)
inactive: 786-0 98.9 µM | COLO 205 66.1 µM | DU-145 > 100 µM | Hs-578T > 100 µM | M14 54.8 µM | MDA-MB-231 30.8 µM | MDA-N 59.4 µM | MOLT-4 36.7 µM | NCI-H226 > 100 µM | NCI-H460 > 100 µM | SF-268 > 100 µM | SK-MEL-2 71 µM | SN12C > 100 µM | SW-620 84.1 µM | UACC-257 62.2 µM | UO-31 89.7 µM
50.6 µM: HCT-15

O=C1NC(=O)C(C(CC(=O)c2ccc(Cl)cc2)c2ccc(Cl)cc2)C(=O)N1 (stereo not drawn)
inactive: 786-0 > 100 µM | DU-145 > 100 µM | Hs-578T > 100 µM | LOX IMVI 54 µM | M14 > 100 µM | MDA-MB-231 > 100 µM | MDA-N 92 µM | MOLT-4 74 µM | NCI-H226 > 100 µM | NCI-H460 > 100 µM | SF-268 36.2 µM | SK-MEL-2 > 100 µM | SN12C > 100 µM | SW-620 > 100 µM | UACC-257 > 100 µM | UO-31 > 100 µM
> 100 µM: HCT-15

O=C1NN=C2C=C(c3ccc(Cl)cc3)CC(c3cccc(Cl)c3)C12 (stereo not drawn)
13.9 µM: HCT-15
inactive: 786-0 21.4 µM | COLO 205 16.8 µM | DU-145 64.3 µM | Hs-578T 19.9 µM | LOX IMVI 18.5 µM | M14 38.3 µM | MDA-MB-231 17.7 µM | MDA-N 23.4 µM | MOLT-4 17.9 µM | NCI-H226 20.4 µM | NCI-H460 19 µM | SF-268 23.1 µM | SK-MEL-2 19.7 µM | SN12C 22.5 µM | SW-620 27.9 µM | UACC-257 17.9 µM | UO-31 19.3 µM

COC(=O)C1=Cc2cc(OC)c(O)cc2[C@@H](c2ccc(O)c(OC)c2)[C@@H]1C(=O)OC
> 100 µM: HCT-15
inactive: 786-0 > 100 µM | COLO 205 > 100 µM | DU-145 > 100 µM | Hs-578T 78.9 µM | LOX IMVI > 100 µM | M14 > 100 µM | MDA-MB-231 39.2 µM | MDA-N 36.9 µM | MOLT-4 > 100 µM | NCI-H226 > 100 µM | NCI-H460 > 100 µM | SF-268 > 100 µM | SN12C > 100 µM | SW-620 > 100 µM | UACC-257 > 100 µM | UO-31 10.5 µM

O=[N+]([O-])c1ccc(/C(=C\c2ccccc2)Cn2ccnc2)cc1
30.2 µM: HCT-15
inactive: 786-0 34.3 µM | COLO 205 15 µM | DU-145 60 µM | Hs-578T 29.1 µM | LOX IMVI 17.3 µM | M14 36.9 µM | MDA-MB-231 13.1 µM | MDA-N 25.4 µM | MOLT-4 24 µM | NCI-H226 32.4 µM | NCI-H460 32 µM | SK-MEL-2 22.9 µM | SN12C 35 µM | SW-620 44.7 µM | UACC-257 37.6 µM | UO-31 13.6 µM

COc1ccc(C2NC(N)=C(C#N)C3=C2C(C)CCC3)cc1OC (stereo not drawn)
inactive: 786-0 77.1 µM | COLO 205 37.3 µM | DU-145 > 100 µM | Hs-578T 74.3 µM | LOX IMVI 35.5 µM | M14 59.2 µM | MDA-MB-231 59.7 µM | MDA-N > 100 µM | MOLT-4 2.75 µM | NCI-H226 > 100 µM | SF-268 > 100 µM | SK-MEL-2 > 100 µM | SN12C 44.4 µM | SW-620 > 100 µM | UACC-257 43.5 µM | UO-31 4.65 µM
44.3 µM: HCT-15

O=S(=O)(O)c1cc(S(=O)(=O)O)c2c(/N=N/c3ccccc3)c(O)ccc2c1
inactive: 786-0 > 100 µM | COLO 205 > 100 µM | DU-145 > 100 µM | Hs-578T > 100 µM | LOX IMVI > 100 µM | M14 > 100 µM | MDA-MB-231 > 100 µM | MDA-N > 100 µM | MOLT-4 > 100 µM | NCI-H226 > 100 µM | SF-268 > 100 µM | SK-MEL-2 > 100 µM | SN12C > 100 µM | SW-620 > 100 µM | UACC-257 > 100 µM | UO-31 > 100 µM
> 100 µM: HCT-15

OC1(c2ccc(Cl)cc2)c2c(ccc3c2OCO3)C2=NCCN21 (stereo not drawn)
52.7 µM: HCT-15
inactive: 786-0 62.2 µM | COLO 205 18.3 µM | DU-145 97.7 µM | Hs-578T 20.8 µM | LOX IMVI 30.5 µM | M14 16.6 µM | MDA-MB-231 28.4 µM | MDA-N 28.6 µM | MOLT-4 40.1 µM | NCI-H460 40.6 µM | SF-268 45 µM | SK-MEL-2 21.2 µM | SN12C 53.7 µM | SW-620 97.9 µM | UACC-257 19.1 µM | UO-31 38.5 µM
